Data set [1] is described as follows: MTD (Maximum Tolerated Dose) study in mice, OECD procedure. The conditions noted are these: both sexes, mouse, in vivo, oral; p.o, single dose, 14 days observation, Swiss Albino mice. On the procedure:
The method was carried out as per OECD procedure. The study was carried out using 5 (2 Male+3 Female) Swiss Albino Mice weighing between 18-30 gms. All the animals were fasted for 3 hrs prior to the oral administration of the drug. After preparing the sample administer immediately to their body all the animals according weight. […] At the end of 14 days all the surviving animals were autopsied and stomach were cut opened and observed for absorption of the drug through the GIT. The result is given in FIG. 1. • COMPOUND 2: MTD>2000 mg.kg, p.o (Single dose 14 days observation) • COMPOUND 1: MTD=500 mg/kg, p.o (Single dose 14 days observation) b. Antagonism of MIAPaca—2 Induced Tumor in Nude Mice: […]

A further data set has as its system MIAPaca-2 induced tumor. As to the kind of experiment: Antagonism of MIAPaca-2 induced tumor in nude mice. In kind it is in vivo. The following applies: for mean tumor area: p.o daily for 30 days, control 33.13 mm^2. As for the experimental part:
This study was carried out with 20 Male Nude Mice. Weighing of Nude Mice were taken initially before inoculation of cell line and made into four groups.
Group-I: Positive control (5 Male)
Group-II: COMPOUND 2 (5 Male) (200 mg/kg, p.o)
Group-III: COMPOUND 1 (5 Male) (50 mg/kg, p.o)
Group-IV: Standard (5 Male) (Erlotinib hydrochloride—50 mg/kg, p.o & Gemcitabine hydrochloride—120 mg/kg, i.p.)
The cell line was inoculated to Nude Mice subcutaneously to the right hind limb flank at a strength of 1×10^7 cells/0.2 ml. […] The tumor volume was measured using the formula ½1×w^2 (l=length of tumor & w=width of tumor). When the mean tumor volume was recorded above 400 mm^3, the treatment with the above drugs were started. The above drugs were administered orally daily for 30 days, except Gemcitabine hydrochloride was administered on 1st and 3rd day of each week. Weight of Nude Mice was taken daily before dosing and tumor measurement was done on alternative days using digital Vernier caliper. Surviving animals were sacrificed after the dosing is complete for 30 days and organs (tumor with skin and pancreas) were collected.
Mice dead during experimental schedule, the tumor with skin and pancreas were collected and tumor with skin was stored in 10% buffered formalin and pancreas were stored in Bouin's solution. All the organs after collection were sent for histopathology.

Data set [2] has as its system NCI-H292 induced tumor (Erlotinib resistant lung cancer). The data set is described as follows: Antagonism of NCI-H292 induced tumor in nude mice (histopathology). In kind it is in vivo. The following applies: 50 mg/kg for 15 days; histopathology (4/5); positive control tumor present in all 5 animals. As for the experimental part: The study was carried out with 15 Nude Mice (8 Male+7 Female).Weighing of Nude Mice were taken initially before inoculation of cell line and made into groups. Grouping as follows:
Group I: Positive control (4 Male+1 Female)
The cell line was inoculated to Nude Mice subcutaneously to the right hind limb flank at a strength of 6.25×10^5 cells/0.2 ml. […] The tumor volume was measured using the formula […] (l=length of tumor & w=width of tumor).When the mean tumor volume was recorded above 400 mm^3, the treatment with the above drugs will be started. […] Weight of Nude Mice Was taken daily before dosing and tumor measurement was done on alternative days using digital Vernier caliper. […] Mice dead during experimental schedule, the tumor with skin and liver were collected and stored in 10% buffered formalin .All the organs after collection were sent for histopathology.

The mark [3] stands for this setting: 200 mg/kg, p.o, 5 mice, control 40%.

The structures appear in SMILES notation.

For orientation: MTD means the highest dose tested that stayed within the study's limit of toxicity. Low values mean a narrow tolerated range, high ones a wide tolerated range. `Cc1c(CN2CCN(S(C)(=O)=O)CC2)sc2c(N3CCOCC3)nc(-c3cnc(N)nc3)cc12` [COMPOUND 1, 5-[3-methyl-2-[(4-methylsulfonylpiperazin-1-yl)methyl]-7-morpholino-thieno[2,3-c]pyridin-5-yl]pyrimidin-2-amine] yielded a maximum tolerated dose (MTD) at 14 days in data set [1] of 500 mg/kg. The mean tumor area in the data set on MIAPaca-2 induced tumor (50 mg/kg) is on record as 8.60 mm^2. In the data set with MIAPaca-2 induced tumor (50 mg/kg, p.o, 5 mice), the “remaining tumors showing no much activity (no invasion)” value is 80% and the “tumors showing invasion into underlying muscle” value stood at 20%. Further, in data set [2], the “clearance of tumor, animals” value amounted to 80%.

Regarding `CS(=O)(=O)N1CCN(Cc2cc3cc(-c4cnc(N)nc4)nc(N4CCOCC4)c3s2)CC1` [COMPOUND 2, 5-[2-[(4-methylsulfonylpiperazin-1-yl)methyl]-7-morpholino-thieno[2,3-c]pyridin-5-yl]pyrimidin-2-amine], in data set [1], the maximal tolerated dose (MTD) at 14 days was greater than 2000 mg/kg. Also, the mean tumor area with MIAPaca-2 induced tumor (200 mg/kg) is reported as 10.90 mm^2. Also, in the data set on MIAPaca-2 induced tumor (setting [3]), the “tumors localized, no tumor invasion seen” value is recorded as 60% and the “tumors showing vascular invasion” value was determined as 40%.

Values taken from US10106554B2, “7-(morpholinyl)-2-(N-piperazinyl) methyl thieno [2, 3-C] pyridine derivatives as anticancer drugs” (NATCO PHARMA LIMITED, priority 2014, dated 2018).
